Laboratory results from patent US20030086952A1, “Highhly concentrated emulsions of organic compounds and methos of use” (priority 2001, published 2003).
“Also recorded” adds a separate entry of the source. Marks after values point to notes of the source that are not given here.

Tests used:
Assay type in all cases: physicochemical
[1] = Production of concentrated Yucca shidegera saponin emulsions in water (content reached); conditions: for Ratio of saponin to emulsified molecule (by mass) / Content (by mass) of molecule in emulsion: Yucca shidegera saponin emulsion in water; for Content (by mass) of molecule in emulsion: mass fraction
Method: (§1) The concentrated emulsions readily re-disperse upon dilution in water to working concentrations of interest. The final concentration of saponin with respect to the organic molecule is easily obtainable at 1:50 or 1:100 w/w, or even less. The shelf life of the concentrated emulsions, either at room temperature (about 25° C.) or at refrigerator temperature (about 4° C.) is at least 1 year, although separation of an emulsion, once stably formed, has not been observed.
mulsions of some aqueous-recalcitrant compounds were prepared in water using Yucca shidegera extracts containing about 12-14% saponin, as an emulsifying agent. The saponin preparations were obtained from Danco Natural Products, Pine Valley, Calif., and are sold under the trade names Pure Yucca (about 7-14% saponin and Yucca Ultra (about 10-11% saponin). These preparations had been filtered by the supplier to remove any fibers which could interfere with the emulsification process. The components were combined as follows, using D-limonene as an example.
(§2) D-limonene (B. F. Goodrich/Kalama Chemicals, Kalama, Wash.) in the amount of 50 grams was added directly to a clean glass container. To this, 1.6 grams of yucca saponin was added. The glass container was covered tightly and agitated vigorously. A poor, partially opaque solution resulted. […] 18.4 grams water was then added such that the total weight of the three components was 70 grams. The mixture was agitated again vigorously in a capped container. A viscous, white and truly opaque emulsion resulted. […] To this, another 30 grams limonene was added while mixing to form 100 g final emulsion. The final concentration of D-limonene in the emulsion was 80% by weight. An additional 10 grams of D-limonene can be to bring the final concentration to 90% by weight.
Likewise, other organic compounds can be emulsified by combining about 50 grams of the organic compound with the fraction of saponin indicated in Table 1 and water in a sufficient amount to produce an emulsion upon mixing of the three components. Following formation of the emulsion, the amount of organic compound can be increased as desired.

[2] = Stability of the saponin emulsions (stable emulsion formed, phase separation, recrystallizing, shelf life); conditions: for formation of a stable emulsion: with yucca saponin and water
Method: as §2, with “vigorously.” for “vigorously. A poor, partially opaque solution resulted.”, “container.” for “container. A viscous, white and truly opaque emulsion resulted.”
(§3) It is worth noting that vanillin is a solid at room termperature. The vanillin emulsion was prepared by first heating vanillin to at least 81° C. in order to melt it, then adding the other components.

[3] = Re-dilution of the concentrated emulsions in water; conditions: concentrated emulsion diluted in water
Method: as §1
Furthermore, no two of the three components were able to form an emulsion on their own under the stated conditions. Emulsions were only possible with all three components.
as §3

Row | Compound | Ratio of saponin to emulsified molecule (by mass) [1] | Content (by mass) of molecule in emulsion [1] | formation of a stable emulsion [2] | also measured
1 | O=CC=Cc1ccccc1 [cinnamaldehyde] | 1/50 | .899 | – | –
2 | COc1cc(/C=C/C=O)ccc1O [coniferaldehyde] | – | – | did not form stable emulsions; also recorded: stable emulsions were not obtained | –
3 | C=CCc1ccc(O)c(OC)c1 [eugenol] | – | – | did not form stable emulsions; also recorded: stable emulsions were not obtained | –
4 | CC/C=C\CC1C(=O)CCC1CC(=O)OC (stereo not drawn) [methyl jasmonate] | – | – | did not form stable emulsions | –
5 | COc1cc(/C=C/C=O)cc(OC)c1O [sinapaldehyde] | – | – | did not form stable emulsions; also recorded: stable emulsions were not obtained | –
6 | cedryl acetate | 1/196 | .794 | – | –

Further lines, with some results ahead:

Row | Ratio of saponin to emulsified molecule (by mass) [1] | Content (by mass) of molecule in emulsion [1] | Compound | formation of a stable emulsion [2] | also measured
7 | 1/18* | .690 | C=C(C)C1CC=C(C)CC1 (single isomer, unassigned; (+)) [(+) limonene] | – | –
8 | 1/55 | .534 | O=C(OCc1ccccc1)c1ccccc1 [benzyl benzoate] | – | –
9 | 1/78 | .909 | C=C(C)[C@H]1CC=C(C)CC1 [d-limonene, D-limonene] | stable emulsion | phase separation of emulsion ([2]; ambient temperature, 50:12:1 D-limonene:water:saponin): will not undergo phase separation for up to two weeks; concentration of organic compound in the emulsion ([1]; stable saponin emulsion in water, two step mixing): 80 % by weight; dilution of emulsion in water [3]: readily diluted up to eighty-fold
10 | 1/34 | .566 | COc1cc(C=O)ccc1O [vanillin] | – | stability of emulsion without recrystallizing ([2]; room temperature, prepared from melt (>81° C.)): stable at room temperature without recrystallizing
